For the assay, the system named is P388 leukemia ip, CD2F1 mice, survival T/C. Kind of assay: NCI In Vivo Anticancer Drug Screen. Data for tumor model P388 Leukemia (intraperitoneal) in CD2F1 (CDF1) mice. Particulars: endpoint: median survival time, higher = longer survival. In short, it runs like this:
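Mice carrying the transplanted tumor received test compound or vehicle. Survival was recorded in each group, and the value is the treated-group measurement divided by that of the vehicle-treated control group.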

[1] abbreviates: dose: 60.0 mg/kg/injection, schedule: Q01DX005 (ip), vehicle: Klucel (hydroxypropylcellulose) (HPC).
Setting [2] is: dose: 120.0 mg/kg/injection, schedule: Q01DX005 (ip), vehicle: Klucel (hydroxypropylcellulose) (HPC).
Where [3] appears, read: dose: 240.0 mg/kg/injection, schedule: Q01DX005 (ip), vehicle: Klucel (hydroxypropylcellulose) (HPC).
[4] abbreviates: dose: 60.0 mg/kg/injection, schedule: Q01DX005 (ip), vehicle: saline with Tween-80.
Where [5] appears, read: dose: 120.0 mg/kg/injection, schedule: Q01DX005 (ip), vehicle: saline with Tween-80.
Where [6] appears, read: dose: 50.0 mg/kg/injection, schedule: Q01DX005 (ip), vehicle: saline with Tween-80.
The mark [7] stands for this setting: dose: 100.0 mg/kg/injection, schedule: Q01DX005 (ip), vehicle: saline with Tween-80.
Setting [8] is: dose: 200.0 mg/kg/injection, schedule: Q01DX005 (ip), vehicle: saline with Tween-80.
[9] abbreviates: dose: 50.0 mg/kg/injection, schedule: Q01DX009 (ip), vehicle: saline.
The mark [10] stands for this setting: dose: 100.0 mg/kg/injection, schedule: Q01DX009 (ip), vehicle: saline.
[11] abbreviates: dose: 200.0 mg/kg/injection, schedule: Q01DX009 (ip), vehicle: saline.
Where [12] appears, read: dose: 100.0 mg/kg/injection, schedule: Q01DX001 (ip), vehicle: Klucel (hydroxypropylcellulose) (HPC).
Setting [13] is: dose: 200.0 mg/kg/injection, schedule: Q01DX001 (ip), vehicle: Klucel (hydroxypropylcellulose) (HPC).
Where [14] appears, read: dose: 400.0 mg/kg/injection, schedule: Q01DX001 (ip), vehicle: Klucel (hydroxypropylcellulose) (HPC).

Molecules are shown by their SMILES. “And” between values parts separate entries of the source, which are not always exact repeats. Equal values may be shown once. Inconclusive results and toxic doses are left out.

Take `C=CCSc1nc(-c2ccc(Cl)cc2)c(C#N)c(=O)[nH]1`: the T/C is, setting by setting: (dose: 100.0 mg/kg/injection, schedule: Q01DX001 (ip), vehicle: saline with Tween-80) 100 % of control; (dose: 200.0 mg/kg/injection, schedule: Q01DX001 (ip), vehicle: saline with Tween-80) 97 % of control; (dose: 400.0 mg/kg/injection, schedule: Q01DX001 (ip), vehicle: saline with Tween-80) 92 % of control.
Turning to `COc1ccc(C2=C(C#N)C(=C(C#N)C#N)NC(N)=C2C#N)cc1`, the T/C under setting [1] is 105 % of control and the T/C under setting [2] is 91 % of control.
In the case of `CCOC(=O)c1ccc(NC(=O)N2CCCCC2C)cc1` (centres undefined), the T/C under setting [1] is 104 % of control, the T/C under setting [2] was 89 % of control and the T/C under setting [3] is 97 % of control.
Consider `CCOC(=O)c1ccc(Nc2nc(NNC(=O)c3ccncc3)nc(Nc3ccc(C)cc3)n2)cc1`, for which the T/C is 99 % of control under setting [4]; 99 % of control under setting [5]; 99 % of control (dose: 240.0 mg/kg/injection, schedule: Q01DX005 (ip), vehicle: saline with Tween-80).
Turning to `C=C1C(=O)C[C@H]2[C@H]3CC[C@H](C(=O)O)[C@]12CC3(C)C`, the T/C by setting is: (dose: 7.5 mg/kg/injection, schedule: Q01DX005 (ip), vehicle: Klucel (hydroxypropylcellulose) (HPC)) 119 % of control; (dose: 15.0 mg/kg/injection, schedule: Q01DX005 (ip), vehicle: Klucel (hydroxypropylcellulose) (HPC)) 113 % of control; (dose: 30.0 mg/kg/injection, schedule: Q01DX005 (ip), vehicle: Klucel (hydroxypropylcellulose) (HPC)) 119 % of control; (dose: 31.5 mg/kg/injection, schedule: Q01DX005 (ip), vehicle: Klucel (hydroxypropylcellulose) (HPC)) 111 % of control.
In the case of `COc1ccc(CCNC(=O)c2ccc(CSc3ccc(Cl)cc3)o2)cc1OC`, the T/C by setting is: under setting [6], 105 % of control; under setting [7], 100 % of control; under setting [8], 93 % of control.
Regarding `COc1ccc2c(C)cc(NN)nc2c1`, the T/C (dose: 6.25 mg/kg/injection, schedule: Q01DX005 (ip), vehicle: Klucel (hydroxypropylcellulose) (HPC)) is 104 % of control and the T/C (dose: 12.5 mg/kg/injection, schedule: Q01DX005 (ip), vehicle: Klucel (hydroxypropylcellulose) (HPC)) is 103 % of control.
Consider `C=CC1(O)Cc2cc(C(C)C)c(OC)c(OC)c21` (centres undefined), for which the T/C was 106 % of control under setting [6], 119 % of control under setting [7] and 109 % of control under setting [8].
For `N#C/C(=C\c1ccccc1Cl)C(N)=S`, the T/C is, setting by setting: under setting [9], 100 % of control; under setting [10], 101 % of control; under setting [11], 97 % of control.
Take `C[N+](C)(C)CCO`: the T/C (dose: 12.5 mg/kg/injection, schedule: Q01DX009 (ip), vehicle: saline) was 105 % of control; the T/C (dose: 25.0 mg/kg/injection, schedule: Q01DX009 (ip), vehicle: saline) was 98 % of control; the T/C under setting [9] was 96 % of control.
As for `O=C1C=C(NC(=O)C(F)(F)F)C(=O)c2c1[nH]c(=O)[nH]c2=O`, the T/C reads like this: (dose: 6.25 mg/kg/injection, schedule: Q01DX005 (ip), vehicle: DMSO) 109 % of control; (dose: 12.5 mg/kg/injection, schedule: Q01DX005 (ip), vehicle: DMSO) 103 % of control; (dose: 25.0 mg/kg/injection, schedule: Q01DX005 (ip), vehicle: DMSO) 103 % of control; (dose: 50.0 mg/kg/injection, schedule: Q01DX005 (ip), vehicle: DMSO) 110 % of control; (dose: 50.0 mg/kg/injection, schedule: Q01DX005 (ip), vehicle: other) 98 % of control; (dose: 100.0 mg/kg/injection, schedule: Q01DX005 (ip), vehicle: other) 104 % of control. Also, where the note is “dose: 200.0 mg/kg/injection, schedule: Q01DX005 (ip), vehicle: other”, the T/C is 101 % of control.
For `CNCc1c(C)[nH]c2ccc(N(C)C)cc2c1=O`, the T/C was 101 % of control under setting [4] and 104 % of control under setting [5].
Turning to `O=NC=C1N(O)C=CN1O`, the T/C was 102 % of control (dose: 25.0 mg/kg/injection, schedule: Q01DX009 (ip), vehicle: other); 101 % of control (dose: 50.0 mg/kg/injection, schedule: Q01DX009 (ip), vehicle: other); 97 % of control (dose: 100.0 mg/kg/injection, schedule: Q01DX009 (ip), vehicle: other); 102 % of control (dose: 200.0 mg/kg/injection, schedule: Q01DX009 (ip), vehicle: other); 99 % of control (dose: 400.0 mg/kg/injection, schedule: Q01DX009 (ip), vehicle: other).
With `O=[N+]([O-])c1ccc(N=Nc2ccc(N(CCCl)CCCl)cc2)c([N+](=O)[O-])c1`, the T/C is, setting by setting: under setting [12], 106 % of control; under setting [13], 108 % of control; under setting [14], 103 % of control.
As to `N#CC(CN1CCOCC1)CN1CCOCC1`, the T/C is 95 % of control (dose: 50.0 mg/kg/injection, schedule: Q01DX009 (ip), vehicle: saline with Tween-80); 101 % of control (dose: 100.0 mg/kg/injection, schedule: Q01DX009 (ip), vehicle: saline with Tween-80); 96 % of control (dose: 200.0 mg/kg/injection, schedule: Q01DX009 (ip), vehicle: saline with Tween-80).
Regarding `CNC(=S)N/N=C(\c1ccccc1)c1ccccn1`, the T/C was 100 % of control under setting [9]; 100 % of control and 105 % of control (dose: 50.0 mg/kg/injection, schedule: Q01DX009 (ip), vehicle: suspension in saline); 102 % of control under setting [10]; 103 % of control and 90 % of control (dose: 100.0 mg/kg/injection, schedule: Q01DX009 (ip), vehicle: suspension in saline); 100 % of control under setting [11]; 96 % of control and 98 % of control (dose: 200.0 mg/kg/injection, schedule: Q01DX009 (ip), vehicle: suspension in saline). For the same molecule, the T/C is 122 % of control (dose: 400.0 mg/kg/injection, schedule: Q01DX009 (ip), vehicle: saline); 102 % of control and 97 % of control (dose: 400.0 mg/kg/injection, schedule: Q01DX009 (ip), vehicle: suspension in saline).
Regarding `CCCCCCCCC1OCN2CC(CC)CCC12` (centres undefined), the T/C is 107 % of control (dose: 50.0 mg/kg/injection, schedule: Q01DX005 (ip), vehicle: saline); 108 % of control (dose: 100.0 mg/kg/injection, schedule: Q01DX005 (ip), vehicle: saline); 108 % of control (dose: 200.0 mg/kg/injection, schedule: Q01DX005 (ip), vehicle: saline).
As to `CNC(=O)OCc1c(COC(=O)NC)c(C)n(-c2ccc3c(c2)OCO3)c1C`, the T/C (dose: 50.0 mg/kg/injection, schedule: Q01DX009 (ip), vehicle: Klucel (hydroxypropylcellulose) (HPC)) is 89 % of control.
As for `CCOC(=O)Nc1cc2c(c(N)n1)N=C(c1ccc(Cl)cc1Cl)CN2`, the T/C reads like this: (dose: 12.5 mg/kg/injection, schedule: Q01DX005 (ip), vehicle: saline with Tween-80) 157 % of control; (dose: 25.0 mg/kg/injection, schedule: Q01DX005 (ip), vehicle: saline with Tween-80) 90 % of control.
For the molecule `COc1cc(NC(C)=O)c(OC)c2c(=O)cc(C(=O)O)[nH]c12`, the T/C is 93 % of control under setting [12], 98 % of control under setting [13] and 99 % of control under setting [14].
`COC(=O)CCC1=C(C)c2cc3[nH]c(cc4[nH]c(cc5nc(cc1n2)C(CCC(=O)OC)=C5C)c(C#N)c4C)c(C#N)c3C`: the T/C was 104 % of control (dose: 50.0 mg/kg/injection, schedule: Q01DX005 (ip), vehicle: Klucel (hydroxypropylcellulose) (HPC)); 95 % of control (dose: 100.0 mg/kg/injection, schedule: Q01DX005 (ip), vehicle: Klucel (hydroxypropylcellulose) (HPC)); 100 % of control (dose: 200.0 mg/kg/injection, schedule: Q01DX005 (ip), vehicle: Klucel (hydroxypropylcellulose) (HPC)).
In the case of `C/C(=N\N=C(N)N)c1cnc(N)nc1C`, the T/C was 98 % of control under setting [1], 97 % of control under setting [2] and 100 % of control under setting [3].
For the molecule `CC(NCCO)C(O)c1ccccc1` (centres undefined), the T/C under setting [10] was 90 % of control and the T/C under setting [11] is 98 % of control.
Regarding `O=C(NC(C(=O)O)c1ccc(CCl)cc1)c1ccccc1` (centres undefined), the T/C runs as follows: under setting [6], 107 % of control; under setting [7], 105 % of control.
On to `CC(=O)OCC/C(SC(C)=O)=C(/C)N(C=O)Cc1cnc(C)nc1N`, for which the T/C is 98 % of control under setting [9], 94 % of control under setting [10] and 100 % of control under setting [11].

Source of the values: PubChem BioAssay AID330 (DTP/NCI, 2004).
